# According to paper PMC8294567, “Associations between plasma nucleoside reverse transcriptase inhibitors concentrations and cognitive function in people with HIV” (PLoS ONE, 2021):
# Structures can show the parent of a compound that is named as a salt.
# What was measured:
# [1] = Plasma NRTI concentrations and population PK parameters (POPPY study)
# Method: (§1) NRTI concentrations were measured by a validated method on ultra-performance liquid chromatography (ACQUITY, Waters) in plasma samples collected at study baseline. Briefly, 200 μL of plasma was subjected to solid phase extraction (MCX cartridge, Waters) and the elutants were dried under nitrogen stream before being re-constituted in 50 μL of water. The NRTI drugs were separated using a C18 BEH column (1.7 μm, 2.1 mm x 100 mm, Waters). For each of the four NRTIs, population PK models were determined using nonlinear mixed effects (NONMEM v.7.3) using the $PRIOR subroutine to stabilise the models and aid partition of inter-individual and residual variabilities. The impact of covariates on antiretroviral apparent oral clearance was evaluated. […] Model fit was assessed by statistical and graphical methods.
# [2] = human, in vivo
# Method: as §1, with “methods. A decrease in the minimal objective function value (-2*log likelihood) of at least 3.84 units (corresponding to a p-value<0.05) was required to accept a model with an extra parameter. Once significant covariates were incorporated, a backwards elimination process was performed and biologically plausible covariates generating an increase in the objective function value of at least 10.83 (i.e. p<0.001) units were retained.” for “methods.”
# Continuous variables, including PK parameters and cognitive z-scores, were summarized using the median and the interquartile range (IQR); categorical variables were described using frequencies and percentages. Associations between NRTI PK parameters and cognitive z-scores were assessed using a series of rank regression models, one for each combination of cognitive domain/global score, NRTI and PK parameter (7x4x3 models). In each model, the cognitive score was considered as the dependent variable and the NRTI PK parameter as an independent variable in addition to the following confounders, selected a priori: age, gender, ethnicity, education, recreational drug use, alcohol consumption, glomerular filtration rate (estimated using the Chronic Kidney Disease Epidemiology Collaboration equation [15]), depressive symptoms (assessed via the Patient Health Questionnaire-9 [16]) use of ritonavir/cobicistat boosted protease inhibitor and use of efavirenz. […] Multivariable analyses were conducted as follows, in order to investigate associations of each PK parameter for one NRTI, independently of the concentration of the other NRTI in the regimen. […] All analyses were performed using the statistical software SAS v9.4 with p-values <0.05 considered as statistically significant.
# cognitive function = settings: cited from earlier work
# [3] = parameters: method as in PMID 16390539; settings: cited from earlier work
# [4] = PWH on cART, median (IQR), from population PK model
Compound,"Ctrough [1, 4]","AUC(0-t) ([1]; human, po) [ng·h/mL]","Cmax ([1]; human, po) [ng/mL]","Eta^2, Age vs Ctrough [2]","Eta^2, Alcohol consumption vs Ctrough [2]","Eta^2, BMI vs Ctrough [2]","Eta^2, Education vs Ctrough [2]","Eta^2, Ethnicity vs Ctrough [2]","Eta^2, Gender vs Ctrough [2]","Eta^2, PHQ-9 score vs Ctrough [2]","Eta^2, Recreational drug use vs Ctrough [2]","Eta^2, Use of Efavirenz vs Ctrough [2]","Eta^2, Use of boosted PI vs Ctrough [2]","Eta^2, eGFR vs Ctrough [2]","Eta^2, Age vs AUC0-24 [2]","Eta^2, Age vs Cmax [2]","Eta^2, Alcohol consumption vs AUC0-24 [2]","Eta^2, Alcohol consumption vs Cmax [2]","Eta^2, BMI vs AUC0-24 [2]","Eta^2, BMI vs Cmax [2]",further results
"CC(C)OC(=O)[C@H](C)N[P@](=O)(CO[C@H](C)Cn1cnc2c(N)ncnc21)Oc1ccccc1 [TAF, tenofovir alafenamide]",,,,,,,,,,,,,,,,,,,,,cognitive performances on switching from TDF to TAF (cognitive function; PWH switching from TDF to TAF): no changes in cognitive performances
"CC(C)OC(=O)OCOP(=O)(CO[C@H](C)Cn1cnc2c(N)ncnc21)OCOC(=O)OC(C)C [TDF, tenofovir disoproxil fumarate]",,,,0.075,0.001,0.013,0.011,0.011,0.001,0.002,0.012,0.005,0.004,0.135,0.070,0.028,0.002,0.005,0.095,0.271,"Eta^2, Education vs AUC0-24 [2]: 0.016; Eta^2, Education vs Cmax [2]: 0.020; Eta^2, Ethnicity vs AUC0-24 [2]: 0.007; Eta^2, Ethnicity vs Cmax [2]: 0.000; Eta^2, Gender vs AUC0-24 [2]: 0.009; Eta^2, Gender vs Cmax [2]: 0.033; Eta^2, PHQ-9 score vs AUC0-24 [2]: 0.001; Eta^2, PHQ-9 score vs Cmax [2]: 0.001; Eta^2, Recreational drug use vs AUC0-24 [2]: 0.007; Eta^2, Recreational drug use vs Cmax [2]: 0.000; Eta^2, Use of Efavirenz vs AUC0-24 [2]: 0.003; Eta^2, Use of Efavirenz vs Cmax [2]: 0.000; Eta^2, Use of boosted PI vs AUC0-24 [2]: 0.004; Eta^2, Use of boosted PI vs Cmax [2]: 0.002; Eta^2, eGFR vs AUC0-24 [2]: 0.124; Eta^2, eGFR vs Cmax [2]: 0.042; CNS penetration [3]: low CNS penetration"
"C[C@H](Cn1cnc2c(N)ncnc21)OCP(=O)(O)O [TFV, tenofovir]","TFV: 53.0 (44.0, 67.0) μg/l",2700,,,,,,,,,,,,,,,,,,,"Cmax [1, 4]: TFV: 0.3 (0.2, 0.3) mg/l"

# Continued, in another order:
"Ctrough [1, 4]","AUC(0-t) ([1]; human, po) [ng·h/mL]","Cmax ([1]; human, po) [ng/mL]","Eta^2, Age vs Ctrough [2]","Eta^2, Alcohol consumption vs Ctrough [2]","Eta^2, BMI vs Ctrough [2]","Eta^2, Education vs Ctrough [2]","Eta^2, Ethnicity vs Ctrough [2]","Eta^2, Gender vs Ctrough [2]","Eta^2, PHQ-9 score vs Ctrough [2]","Eta^2, Recreational drug use vs Ctrough [2]","Eta^2, Use of Efavirenz vs Ctrough [2]","Eta^2, Use of boosted PI vs Ctrough [2]","Eta^2, eGFR vs Ctrough [2]","Eta^2, Age vs AUC0-24 [2]","Eta^2, Age vs Cmax [2]","Eta^2, Alcohol consumption vs AUC0-24 [2]","Eta^2, Alcohol consumption vs Cmax [2]","Eta^2, BMI vs AUC0-24 [2]","Eta^2, BMI vs Cmax [2]",Compound,further results
"3TC: 12.4 (3.0, 126.7) μg/l",9900,2400,0.101,0.005,0.002,0.084,0.021,0.002,0.015,0.014,0.041,0.039,0.230,,,,,,,"Nc1ccn([C@@H]2CS[C@H](CO)O2)c(=O)n1 [3TC, lamivudine]",
"ABC: 2.6 (1.4, 4.6) μg/l",12700,4200,0.069,0.008,0.000,0.114,0.002,0.001,0.000,0.010,0.040,0.059,0.089,0.005,0.017,0.002,0.000,0.010,0.014,"Nc1nc(NC2CC2)c2ncn([C@H]3C=C[C@@H](CO)C3)c2n1 [ABC, abacavir]","Eta^2, Education vs AUC0-24 [2]: 0.071; Eta^2, Education vs Cmax [2]: 0.033; Eta^2, Ethnicity vs AUC0-24 [2]: 0.011; Eta^2, Ethnicity vs Cmax [2]: 0.025; Eta^2, Gender vs AUC0-24 [2]: 0.036; Eta^2, Gender vs Cmax [2]: 0.034; Eta^2, PHQ-9 score vs AUC0-24 [2]: 0.000; Eta^2, PHQ-9 score vs Cmax [2]: 0.001; Eta^2, Recreational drug use vs AUC0-24 [2]: 0.027; Eta^2, Recreational drug use vs Cmax [2]: 0.009; Eta^2, Use of Efavirenz vs AUC0-24 [2]: 0.016; Eta^2, Use of Efavirenz vs Cmax [2]: 0.000; Eta^2, Use of boosted PI vs AUC0-24 [2]: 0.053; Eta^2, Use of boosted PI vs Cmax [2]: 0.008; Eta^2, eGFR vs AUC0-24 [2]: 0.039; Eta^2, eGFR vs Cmax [2]: 0.000; effect on cognitive performance (cognitive function; cohort study): beneficial effect; cognitive function after ABC initiation (cognitive function; randomized controlled trial, PWH with HIV-associated dementia): no improvement of cognitive function"
"FTC: 75.0 (59.0, 99.0) μg/l",10400,1100,0.099,0.001,0.000,0.013,0.005,0.000,0.004,0.025,0.005,0.005,0.083,0.157,0.189,0.000,0.000,0.000,0.000,"Nc1nc(=O)n([C@@H]2CS[C@H](CO)O2)cc1F [FTC, emtricitabine]","Eta^2, Education vs AUC0-24 [2]: 0.013; Eta^2, Education vs Cmax [2]: 0.011; Eta^2, Ethnicity vs AUC0-24 [2]: 0.010; Eta^2, Ethnicity vs Cmax [2]: 0.014; Eta^2, Gender vs AUC0-24 [2]: 0.000; Eta^2, Gender vs Cmax [2]: 0.000; Eta^2, PHQ-9 score vs AUC0-24 [2]: 0.004; Eta^2, PHQ-9 score vs Cmax [2]: 0.002; Eta^2, Recreational drug use vs AUC0-24 [2]: 0.030; Eta^2, Recreational drug use vs Cmax [2]: 0.033; Eta^2, Use of Efavirenz vs AUC0-24 [2]: 0.008; Eta^2, Use of Efavirenz vs Cmax [2]: 0.008; Eta^2, Use of boosted PI vs AUC0-24 [2]: 0.008; Eta^2, Use of boosted PI vs Cmax [2]: 0.008; Eta^2, eGFR vs Cmax [2]: 0.172"
